In publication PMC8035174, “The Pseudomonas aeruginosa substrate-binding protein Ttg2D functions as a general glycerophospholipid transporter across the periplasm” (Communications Biology, 2021):
Values after ≈ are worked out from the molar mass of the structure shown.

Test system: T1, Pseudomonas aeruginosa PAO1
T1 construct: PAO1
Assay: microbe, parasite or virus in culture
Parameters: broth microdilution MIC in cation-adjusted Mueller-Hinton broth, visual growth or resazurin
Settings: PAO1, 20 h, read-out: MIC PAO1
Procedure: Analysis of antimicrobial susceptibilities. […] The BMD method was performed on cation adjusted MH broth (CAMHB) as recommended 41, 42 . Bacteria were first grown overnight in CAMHB using CLSI-recommended incubation conditions and the antibiotics were serially diluted twofold across the 96 well plates. After that, 100 µl of a bacterial suspension diluted to 5x10^5 CFU/ml in CAMHB was added to the wells containing the antibiotic dilutions. The 96-well plates were incubated for 20 h at 37°C before developing by visual inspection or with the resazurin dye 43 . MIC was defined as the lowest concentration of the antibiotic (in μg/ml) that prevented visual growth. As the LESB58 isolate is considered a slower growing strain compared to laboratory strain PAO1 44, incubation for bacterial growth was extended to 48 h instead of 24 h for some protocols. […] For Etest a 0.5 McFarland suspension was used to create a confluent lawn of microbial growth in 150-mm Mueller-Hinton (MH) agar plates. The MIC values were determined according to the Etest reading guide after 18 h incubation at 37°C. MICs were determined as the concentration at which the zone of inhibition intersected the Etest strip.

`CCN1CCN(C(=O)N[C@@H](C(=O)N[C@@H]2C(=O)N3[C@@H]2SC(C)(C)[C@@H]3C(=O)O)c2ccccc2)C(=O)C1=O` [Piperacillin] showed an MIC of 2 µg/mL (≈ 3.86 µM).

Work on `CN(C)c1cc(NC(=O)CNC(C)(C)C)c(O)c2c1C[C@H]1C[C@H]3[C@H](N(C)C)C(O)=C(C(N)=O)C(=O)[C@@]3(O)C(O)=C1C2=O` [Tigecycline] yielded an MIC of 32 µg/mL (≈ 54.6 µM).

For `C[C@H]1COc2c(N3CCN(C)CC3)c(F)cc3c(=O)c(C(=O)O)cn1c23` [Levofloxacin], the MIC was 4 µg/mL (≈ 11.1 µM).

With `CC1(C)S[C@@H]2[C@H](NC(=O)[C@H](C(=O)O)c3ccsc3)C(=O)N2[C@H]1C(=O)O` [Ticarcillin] the MIC was 16 µg/mL (≈ 41.6 µM).

Compound `CC(C)(O/N=C(\C(=O)N[C@@H]1C(=O)N2C(C(=O)[O-])=C(C[n+]3ccccc3)CS[C@H]12)c1csc(N)n1)C(=O)O` [Ceftazidime] has an MIC of 1 µg/mL (≈ 1.83 µM).

`C[C@@H](O)[C@H]1C(=O)N2C(C(=O)O)=C(SCCNC=N)C[C@H]12` [Imipenem] was tested, and the MIC was 4 µg/mL (≈ 13.4 µM).

In the case of `C[C@@H](O)[C@H]1C(=O)N2C(C(=O)O)=C(S[C@@H]3CN[C@H](C(=O)N(C)C)C3)[C@H](C)[C@H]12` [Meropenem], the MIC is reported as 1 µg/mL (≈ 2.61 µM).

`CN(C)c1ccc(O)c2c1C[C@H]1C[C@H]3[C@H](N(C)C)C(O)=C(C(N)=O)C(=O)[C@@]3(O)C(O)=C1C2=O` [Minocycline] was tested, and the MIC was 32 µg/mL (≈ 69.9 µM).

`CCn1cc(C(=O)O)c(=O)c2cc(F)c(N3CCNCC3)cc21` [Norfloxacin] showed an MIC of 4 µg/mL (≈ 12.5 µM).

Compound `CC1COc2c(N3CCN(C)CC3)c(F)cc3c(=O)c(C(=O)O)cn1c23` (stereo not shown) [Ofloxacin] has an MIC of 8 µg/mL (≈ 22.1 µM).

`NCC[C@H](O)C(=O)N[C@@H]1C[C@H](N)[C@@H](O[C@H]2O[C@H](CN)[C@@H](O)[C@H](O)[C@H]2O)[C@H](O)[C@H]1O[C@H]1O[C@H](CO)[C@@H](O)[C@H](N)[C@H]1O` [Amikacin] showed an MIC of 2 µg/mL (≈ 3.42 µM).

For `O=C(N[C@H](CO)[C@H](O)c1ccc([N+](=O)[O-])cc1)C(Cl)Cl` [Chloramphenicol], the MIC was over 256 µg/mL.

For `CN[C@@H]1[C@H](O[C@H]2[C@H](O[C@H]3[C@H](O)[C@@H](O)[C@H](N=C(N)N)[C@@H](O)[C@@H]3N=C(N)N)O[C@@H](C)[C@]2(O)C=O)O[C@@H](CO)[C@H](O)[C@H]1O` [Streptomycin], the MIC was 8 µg/mL (≈ 13.8 µM).
